Measurements taken from patent US6683103B2, “Sulfonamides for treatment of endothelin-mediated disorders” (Texas Biotechnology Corporation, priority 1997, dated 2004).
Read-outs that look alike come from different tables or passages of the source.

Key:
human ETA receptors = target: T1, human ETA receptors (Homo sapiens, UniProt P25101); assay: Binding Test #1: inhibition of 125I-ET-1 binding to ETA receptors (TE 671 cell membranes)
T1 construct: endogenous in cells; host or cells: TE 671 cells (ATCC HTB 139)
T1 sequence (P25101 21-427): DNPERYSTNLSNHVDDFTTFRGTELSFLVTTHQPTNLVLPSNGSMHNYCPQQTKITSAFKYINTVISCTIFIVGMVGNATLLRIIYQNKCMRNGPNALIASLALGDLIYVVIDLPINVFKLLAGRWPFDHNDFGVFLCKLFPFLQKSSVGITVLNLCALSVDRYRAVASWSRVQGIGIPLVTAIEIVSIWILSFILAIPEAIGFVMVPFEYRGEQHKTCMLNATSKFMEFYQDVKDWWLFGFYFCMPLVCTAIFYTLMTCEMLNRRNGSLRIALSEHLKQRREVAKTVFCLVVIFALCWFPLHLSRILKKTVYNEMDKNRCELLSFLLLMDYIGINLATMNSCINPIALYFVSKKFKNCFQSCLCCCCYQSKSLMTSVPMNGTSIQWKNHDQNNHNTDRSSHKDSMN
Outline: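 Membranes from TE 671 cells (up to 8 μg protein) incubated with ¹²⁵I-ET-1 and compound (1 nM–100 μM final) in 30 mM HEPES pH 7.4, 150 mM NaCl, 5 mM MgCl2, 0.5% bacitracin, 16–18 h at 4 °C or alternatively at 24 °C. Nonspecific binding with 80 nM ET-1; bound pellet gamma-counted, % inhibition calculated, usually triplicate.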

human ETB receptor = target: T2, human ETB receptor (Homo sapiens, UniProt P24530); assay: Binding Test #2: inhibition of 125I-ET-1 binding to ETB receptors (transfected COS7 cell membranes)
T2 construct: expressed in transfected cells; host or cells: COS7 cells
T2 sequence (P24530 27-442): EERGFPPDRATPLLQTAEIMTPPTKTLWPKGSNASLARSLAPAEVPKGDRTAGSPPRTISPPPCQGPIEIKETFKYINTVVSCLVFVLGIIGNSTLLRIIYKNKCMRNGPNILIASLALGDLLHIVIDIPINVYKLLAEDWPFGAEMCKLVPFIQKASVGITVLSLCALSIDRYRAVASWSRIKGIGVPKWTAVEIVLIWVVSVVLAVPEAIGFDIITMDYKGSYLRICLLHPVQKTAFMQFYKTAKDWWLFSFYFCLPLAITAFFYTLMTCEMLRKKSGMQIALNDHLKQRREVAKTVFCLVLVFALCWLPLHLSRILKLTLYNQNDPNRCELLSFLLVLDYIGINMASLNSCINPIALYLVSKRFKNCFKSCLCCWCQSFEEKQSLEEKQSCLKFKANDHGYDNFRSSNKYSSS
Outline: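 Competition with 125I-ET-1 for binding to membranes from COS7 cells transfected with human ETB receptor, used at 1 μg/50 μl binding buffer. Membranes prepared in HEPES pH 7.4 with aprotinin, including a DNase/MnCl2 step at 37 °C for 30 min.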

[1] = Table 1, † incubation at 24° C., read-out: ETA
[2] = Table 1, † incubation at 24° C., read-out: ETB
[3] = Table 2, incubation at 4° C., read-out: ETA
[4] = Table 2, incubation at 4° C., read-out: ETB
[5] = Table 1, incubation at 4° C., read-out: ETA
[6] = Table 1, incubation at 4° C., read-out: ETB

Row | SMILES | IC50 (human ETA receptors; [1]) | IC50 (human ETB receptor; [2]) | IC50 (human ETA receptors; [5]) | IC50 (human ETB receptor; [6]) | other results
1 | Cc1noc(NS(=O)(=O)c2ccsc2C/C=C/c2ccc3c(c2)OCO3)c1Br [N-(4-bromo-3-methyl-5-isoxazolyl)-2-[trans-(3,4-methylenedioxy)cinnamyl]thiophene-3-sulfonamide] | 0.14 µM | 1.4 µM | – | – | –
2 | Cc1noc(NS(=O)(=O)c2ccccc2-c2ccccc2)c1Br [N-(4-bromo-3-methyl-5-isoxazolyl)-2-biphenylsulfonamide] | – | – | – | – | IC50 (human ETA receptors; [3]): 0.00127 µM; IC50 (human ETA receptors; read-out: IC50 for ETA receptors): ~0.0016 µM; IC50 (human ETB receptor; [4]): 8.54 µM
3 | CCc1sc2ccc(C)cc2c1S(=O)(=O)Nc1onc(C)c1Br [N-(4-bromo-3-methyl-5-isoxazolyl)-2-ethyl-5-methylbenzo[b]thiophene-3-sulfonamide] | 1.89 ± 0.431 µM | 54.3 ± 2.6 µM | – | – | –
4 | Cc1noc(NS(=O)(=O)c2c(C(C)C)sc3ccccc23)c1Br [N-(4-bromo-3-methyl-5-isoxazolyl)-2-i-propylbenzo[b]thiophene-3-sulfonamide] | 0.03 µM | 10.7 µM | 0.005 µM | 5.7 µM | –
5 | Cc1noc(NS(=O)(=O)c2c(C)sc3ccccc23)c1Br [N-(4-bromo-3-methyl-5-isoxazolyl)-2-methylbenzo[b]thiophene-3-sulfonamide] | – | – | 0.0486 µM | 3.5 µM | –
6 | Cc1noc(NS(=O)(=O)c2c(Cc3ccccc3)sc3ccccc23)c1Br [N-(4-bromo-3-methyl-5-isoxazolyl)-2-n-benzylbenzo[b]thiophene-3-sulfonamide] | – | – | 0.0182 µM | ~1 µM | –
7 | CCCc1sc2ccccc2c1S(=O)(=O)Nc1onc(C)c1Br [N-(4-bromo-3-methyl-5-isoxazolyl)-2-n-propylbenzo[b]thiophene-3-sulfonamide] | 0.074 µM | 16.6 µM | 0.024 µM | 7.95 µM | –
8 | Cc1ccc(Cc2cc(-c3ccc(C)cc3)sc2S(=O)(=O)Nc2onc(C)c2Br)cc1 [N-(4-bromo-3-methyl-5-isoxazolyl)-3-(4-methylbenzyl)-5-(4-tolyl)thiophene-2-sulfonamide] | 4.69 µM | 1.56 µM | – | – | –
9 | Cc1ccc(CCc2cc(-c3ccc(C)cc3)sc2S(=O)(=O)Nc2onc(C)c2Br)cc1 [N-(4-bromo-3-methyl-5-isoxazolyl)-3-(4-methylphenethyl)-5-(4-tolyl)thiophene-2-sulfonamide] | 6.1 µM | 2.09 µM | – | – | –
10 | Cc1noc(NS(=O)(=O)c2sccc2CC=Cc2cc3c(cc2CO)OCO3)c1Br [N-(4-bromo-3-methyl-5-isoxazolyl)-3-[2-(hydroxymethyl)-4,5-(methylenedioxy)cinnamyl]thiophene-2-sulfonamide] | 0.0795 µM | 3.24 µM | – | – | –
11 | Cc1cc2c(cc1C=CCc1ccsc1S(=O)(=O)Nc1onc(C)c1Br)OCO2 [N-(4-bromo-3-methyl-5-isoxazolyl)-3-[2-methyl-4,5-(methylenedioxy)cinnamyl]thiophene-2-sulfonamide] | ~0.1 µM | ~6 µM | – | – | –
12 | Cc1cc2c(cc1CCc1ccsc1S(=O)(=O)Nc1onc(C)c1Br)OCO2 [N-(4-bromo-3-methyl-5-isoxazolyl)-3-[2-methyl-4,5-(methylenedioxy)phenethyl]thiophene-2-sulfonamide] | ~0.1 µM | ~5 µM | – | – | –
13 | Cc1noc(NS(=O)(=O)c2sccc2/C=C/c2ccc3c(c2)OCO3)c1Br [N-(4-bromo-3-methyl-5-isoxazolyl)-3-[3,4-(methylenedioxy)-trans-styryl]thiophene-2-sulfonamide] | 0.218 µM | 10 µM | – | – | –
14 | Cc1noc(NS(=O)(=O)c2sccc2CCc2ccc3c(c2)OCO3)c1Br [N-(4-bromo-3-methyl-5-isoxazolyl)-3-[3,4-(methylenedioxy)phenethyl]thiophene-2-sulfonamide] | 0.236 µM | 18 µM | – | – | –
15 | Cc1noc(NS(=O)(=O)c2sccc2-c2ccc3c(c2)OCO3)c1Br [N-(4-bromo-3-methyl-5-isoxazolyl)-3-[(3,4-methylenedioxy)phenyl]thiophene-2-sulfonamide] | 0.5 µM | 79 µM | – | – | –
16 | Cc1noc(NS(=O)(=O)c2cccc(-c3ccccc3)c2)c1Br [N-(4-bromo-3-methyl-5-isoxazolyl)-3-biphenylsulfonamide] | – | – | – | – | IC50 (human ETA receptors; [3]): ~0.03 µM; IC50 (human ETB receptor; [4]): 0.76 µM; IC50 (human ETB receptor; read-out: IC50 for ETB receptors): ~0.76 µM
17 | CCCc1cc2c(cc1OCc1ccsc1S(=O)(=O)Nc1onc(C)c1Br)OCO2 [N-(4-bromo-3-methyl-5-isoxazolyl)-3-{[2-propyl-4,5-(methylenedioxy)phenoxy]methyl}thiophene-2-sulfonamide] | ~0.2 µM | 1.5 µM | – | – | –
18 | Cc1noc(NS(=O)(=O)c2cc(-c3ccc(C(C)C)cc3)cs2)c1Br [N-(4-bromo-3-methyl-5-isoxazolyl)-4-(4′-isopropylphenyl))thiophene-2-sulfonamide] | – | – | 5.5 µM | 1.3 µM | –
19 | Cc1noc(NS(=O)(=O)c2ccc(-c3ccccc3)cc2)c1Br [N-(4-bromo-3-methyl-5-isoxazolyl)-4-biphenylsulfonamide] | – | – | – | – | IC50 (human ETA receptors; [3]): 3.3 µM; IC50 (human ETA receptors; Table 2, † incubation at 24° C., read-out: ETA): 49 µM; IC50 (human ETB receptor; [4]): ~0.17 µM; IC50 (human ETB receptor; Table 2, † incubation at 24° C., read-out: ETB): 1.23 µM

Second part, led by results:

Row | IC50 (human ETA receptors; [1]) | IC50 (human ETB receptor; [2]) | IC50 (human ETA receptors; [5]) | IC50 (human ETB receptor; [6]) | SMILES | other results
20 | – | – | 0.0226 µM | ~3 µM | CCCCc1sc2ccccc2c1S(=O)(=O)Nc1onc(C)c1Br [N-(4-bromo-3-methyl-5-isoxazolyl)-2-butylbenzo[b]thiophene-3-sulfonamide] | –
21 | 0.59 µM | 104 µM | – | – | Cc1noc(NS(=O)(=O)c2c(C(=O)O)n(C)c3ccccc23)c1Br [N-(4-bromo-3-methyl-5-isoxazolyl)-2-carboxyl-1-methylidole-3-sulfonamide] | –
22 | – | – | 0.0067 µM | 5.13 µM | CCc1sc2ccccc2c1S(=O)(=O)Nc1onc(C)c1Br [N-(4-bromo-3-methyl-5-isoxazolyl)-2-ethylbenzo[b]thiophene-3-sulfonamide] | –
23 | 0.302 µM | 6.61 µM | – | – | Cc1noc(NS(=O)(=O)c2ccsc2COc2ccc3c(c2)OCO3)c1Br [N-(4-bromo-3-methyl-5-isoxazolyl)-2-{[3,4-(methylenedioxy)phenoxy]methyl}thiophene-3-sulfonamide] | –
24 | 6.9 µM | 1.58 µM | – | – | Cc1ccc(/C=C/c2cc(-c3ccc(C)cc3)sc2S(=O)(=O)Nc2onc(C)c2Br)cc1 [N-(4-bromo-3-methyl-5-isoxazolyl)-3-(4-methyl-trans-styryl)-5-(4-tolyl)thiophene-2-sulfonamide] | –
25 | 0.676 µM | 37.2 µM | 0.16 µM | 10.8 µM | Cc1noc(NS(=O)(=O)c2sccc2CCc2ccccc2)c1Br [N-(4-bromo-3-methyl-5-isoxazolyl)-3-(phenethyl)thiophene-2-sulfonamide] | –
26 | 0.0801 µM | 3.68 µM | – | – | Cc1noc(NS(=O)(=O)c2sccc2Sc2ccccc2)c1Br [N-(4-bromo-3-methyl-5-isoxazolyl)-3-(phenylthio)thiophene-2-sulfonamide] | –
27 | – | – | 0.651 µM | 7.15 µM | Cc1ccsc1S(=O)(=O)Nc1onc(C)c1Br [N-(4-bromo-3-methyl-5-isoxazolyl)-3-methylthiophene-2-sulfonamide] | –
28 | – | – | 0.103 µM | 3.46 µM | Cc1noc(NS(=O)(=O)c2sccc2Oc2ccccc2)c1Br [N-(4-bromo-3-methyl-5-isoxazolyl)-3-phenoxythiophene-2-sulfonamide] | –
29 | – | – | 0.0547 µM | 11.1 µM | Cc1noc(NS(=O)(=O)c2sccc2-c2ccccc2)c1Br [N-(4-bromo-3-methyl-5-isoxazolyl)-3-phenylthiophene-2-sulfonamide] | –
30 | 0.0967 µM | – | – | 4.14 µM | Cc1noc(NS(=O)(=O)c2sccc2CC=Cc2cc3c(cc2COC2CCCCO2)OCO3)c1Br (centres unmarked) [N-(4-bromo-3-methyl-5-isoxazolyl)-3-{2-[(tetrahydro-4H-pyran-2-ylxoy)methyl]-4,5-(methylenedioxy)cinnamyl}thiophene-2-sulfonamide] | –
31 | 0.962 µM | 0.435 µM | – | – | CCCc1ccc(-c2csc(S(=O)(=O)Nc3onc(C)c3Br)c2)cc1 [N-(4-bromo-3-methyl-5-isoxazolyl)-4-(4-propylphenyl)thiophene-2-sulfonamide] | –
32 | – | – | 6.64 µM | 3.97 µM | Cc1noc(NS(=O)(=O)c2cc(CCc3ccccc3)cs2)c1Br [N-(4-bromo-3-methyl-5-isoxazolyl)-4-(phenethyl)thiophene-2-sulfonamide] | –
